Reference: the NIST ThermoML archive (doi:10.1021/acs.jced.8b00589)
± gives the expanded uncertainty stated by the source.

Assays:
[1] = xn = mol fraction of the nth substance listed; details: x2 = 0; for surface tension liquid-gas: Ring tensiometer; for viscosity / speed of sound / mass density: 100 kPa, Liquid; for viscosity: Capillary tube (Ostwald / Ubbelohde) method; for speed of sound: Frequency=2 MHz, Linear variable-path acoustic interferometer; for mass density: Vibrating tube method
[2] = for surface tension liquid-gas: Ring tensiometer; for viscosity / speed of sound / mass density: 100 kPa, Liquid; for viscosity: Capillary tube (Ostwald / Ubbelohde) method; for speed of sound: Frequency=2 MHz, Linear variable-path acoustic interferometer; for mass density: Vibrating tube method

CCCCCC [hexane] + CCC(C)(C)OC
[1]
Details | mass density [kg/m3] | speed of sound [m/s] | surface tension liquid-gas [mN/m] | viscosity [mPa·s]
298.15 K | 654.7 ± 1 | 1073.2 ± 10 | 17.75 ± 0.85 | 0.295 ± 0.03
308.15 K | 645.4 ± 1 | 1031.2 ± 10 | 16.63 ± 0.84 | 0.263 ± 0.03
318.15 K | 636.2 ± 1 | 981.23 ± 10 | 15.52 ± 0.84 | 0.24 ± 0.03
323.15 K | 631.2 ± 1 | 960.75 ± 10 | 14.96 ± 0.84 | 0.232 ± 0.03
328.15 K | 626.4 ± 1 | 940.35 ± 10 | 14.41 ± 0.83 | 0.223 ± 0.03

CCC(C)(C)OC [2-methoxy-2-methylbutane]
[2]
Details | mass density [kg/m3] | speed of sound [m/s] | surface tension liquid-gas [mN/m] | viscosity [mPa·s]
298.15 K | 765.6 ± 1 | 1118 ± 10 | 19.72 ± 0.85 | 0.424 ± 0.03
308.15 K | 756.3 ± 1 | 1075.6 ± 10 | 18.66 ± 0.85 | 0.39 ± 0.03
318.15 K | 746.3 ± 1 | 1031.1 ± 10 | 17.65 ± 0.85 | 0.357 ± 0.03
323.15 K | 741.4 ± 1 | 1003 ± 10 | 17.13 ± 0.84 | 0.34 ± 0.03
328.15 K | 736.5 ± 1 | 985.24 ± 10 | 16.62 ± 0.84 | 0.328 ± 0.03

Cc1cccc(C)c1 [1,3-dimethylbenzene]
[2]
Details | mass density [kg/m3] | speed of sound [m/s] | surface tension liquid-gas [mN/m] | viscosity [mPa·s]
298.15 K | 859.1 ± 1 | 1320.9 ± 10 | 28.19 ± 0.89 | 0.59 ± 0.03
308.15 K | 849.2 ± 1 | 1280 ± 10 | 26.95 ± 0.89 | 0.525 ± 0.03
318.15 K | 840.4 ± 1 | 1238.2 ± 10 | 25.64 ± 0.88 | 0.482 ± 0.03
323.15 K | 835.8 ± 1 | 1218.4 ± 10 | 25 ± 0.88 | 0.443 ± 0.03
328.15 K | 831.6 ± 1 | 1195.2 ± 10 | 24.37 ± 0.87 | 0.433 ± 0.03

CCCCCC [hexane]
[2]
Details | mass density [kg/m3] | speed of sound [m/s] | surface tension liquid-gas [mN/m] | viscosity [mPa·s]
298.15 K | 654.7 ± 1 | 1073.2 ± 10 | 17.75 ± 0.85 | 0.295 ± 0.03
308.15 K | 645.4 ± 1 | 1031.2 ± 10 | 16.63 ± 0.84 | 0.263 ± 0.03
318.15 K | 636.2 ± 1 | 981.26 ± 10 | 15.52 ± 0.84 | 0.24 ± 0.03
323.15 K | 631.2 ± 1 | 960.75 ± 10 | 14.96 ± 0.84 | 0.232 ± 0.03
328.15 K | 626.4 ± 1 | 940.39 ± 10 | 14.41 ± 0.83 | 0.223 ± 0.03

Cc1cccc(C)c1 [1,3-dimethylbenzene] + CCC(C)(C)OC
[1]
Details | mass density [kg/m3] | speed of sound [m/s] | surface tension liquid-gas [mN/m] | viscosity [mPa·s]
298.15 K | 859.1 ± 1 | 1320.9 ± 10 | 28.19 ± 0.89 | 0.59 ± 0.03
308.15 K | 849.2 ± 1 | 1280 ± 10 | 26.95 ± 0.89 | 0.525 ± 0.03
318.15 K | 840.4 ± 1 | 1238.2 ± 10 | 25.64 ± 0.88 | 0.482 ± 0.03
323.15 K | 835.8 ± 1 | 1218.4 ± 10 | 25 ± 0.88 | 0.443 ± 0.03
328.15 K | 831.6 ± 1 | 1195.2 ± 10 | 24.37 ± 0.87 | 0.433 ± 0.03
